Assay results: ChEMBL document CHEMBL5604065, “ASAP - DENV-3 NS2B-NS3 protease fluorescence dose response” (2024)

target: T1, NS3 protease (dengue virus type 3, UniProt A0A0B5JFF1); assay: Functional biochemical assay to identify treatments for viral infectious disease that targets Dengue virus type 3 NS2B-NS3 protease. Utilizing a direct enzyme activity measurement method, reading the fluorescence intensity is used to characterize the relative potency of inhibitors as IC50.; parameters: species or system Philippines/H87/1956
T1 sequence (A0A0B5JFF1 whole entry): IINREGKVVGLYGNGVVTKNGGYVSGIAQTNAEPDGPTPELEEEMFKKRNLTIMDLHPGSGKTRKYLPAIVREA

Compound | IC50 [µM]
N#Cc1ccc(-c2nc3c(C(=O)Nc4ccc5c(c4)CNC5)cc(F)cc3[nH]2)cc1 | 1.7
COc1cccc(-c2nc3c(C(=O)Nc4ccc5c(c4)CNC5)cc(F)cc3[nH]2)c1 | 3.72
O=C(Nc1ccc2c(c1)CNC2)c1cc(F)cc2[nH]c(-c3cccc(F)c3)nc12 | 2.73
Cc1cccc(-c2nc3c(C(=O)Nc4ccc5c(c4)CNC5)cc(F)cc3[nH]2)c1 | 6.16
NCc1ccc(-c2csc3cc(C(=O)Nc4ccc5c(c4)CNC5)ccc23)cc1 | 31.6
NCc1csc2cc(C(=O)Nc3ccc4c(c3)CNC4)ccc12 | 9.07
O=C(Nc1ccc2c(c1)CNC2)c1cccc2c(C3CNC3)n[nH]c12 | 9.27
